Laboratory results from the NIST ThermoML archive (doi:10.1016/j.jct.2012.11.014).
Numbers after ± are expanded uncertainties.

Experiment: xn = mol fraction of the nth substance listed
Settings: 101 kPa, Liquid; for speed of sound: Frequency=2 MHz, Linear variable-path acoustic interferometer; for viscosity: Oscillating disk viscometry; for mass density: Vibrating tube method

C[NH+](C)C.O=S(=O)([O-])O [trimethylammonium hydrogen sulfate] + C[S+](C)[O-]
Settings | mass density, 298.15 K [kg/m3] | mass density, 303.15 K [kg/m3] | speed of sound, 298.15 K [m/s] | speed of sound, 303.15 K [m/s] | viscosity, 298.15 K [mPa·s] | viscosity, 303.15 K [mPa·s]
x1 = 0.013 | 1102.89 ± 1 | 1099.96 ± 1 | 1498 ± 3 | 1475 ± 3 | 2.07 ± 0.13 | 1.89 ± 0.12
x1 = 0.0356 | 1115.76 ± 1 | 1112.84 ± 1 | 1499 ± 3 | 1477 ± 3 | 2.23 ± 0.14 | 2.03 ± 0.13
x1 = 0.0539 | 1125.92 ± 1.1 | 1122.95 ± 1.1 | 1501 ± 3 | 1479 ± 3 | 2.36 ± 0.15 | 2.15 ± 0.13
x1 = 0.0982 | 1149.81 ± 1.1 | 1146.81 ± 1.1 | 1504 ± 3 | 1485 ± 3 | 2.62 ± 0.16 | 2.39 ± 0.15
x1 = 0.1259 | 1164.24 ± 1.1 | 1161.18 ± 1.1 | 1507 ± 3 | 1488 ± 3 | 2.75 ± 0.17 | 2.54 ± 0.16
x1 = 0.1608 | 1181.78 ± 1.1 | 1178.69 ± 1.1 | 1511 ± 3 | 1492 ± 3 | 2.91 ± 0.18 | 2.69 ± 0.17
x1 = 0.1982 | 1199.92 ± 1.1 | 1196.87 ± 1.1 | 1514 ± 3 | 1496 ± 3 | 3.09 ± 0.19 | 2.85 ± 0.18
x1 = 0.2422 | 1220.26 ± 1.1 | 1217.02 ± 1.1 | 1519 ± 3 | 1501 ± 3 | 3.3 ± 0.21 | 3.02 ± 0.19
x1 = 0.2956 | 1243.91 ± 1.1 | 1240.65 ± 1.1 | 1522 ± 3 | 1506 ± 3 | 3.52 ± 0.22 | 3.22 ± 0.2
x1 = 0.3855 | 1281.02 ± 1.1 | 1277.68 ± 1.1 | 1528 ± 3 | 1514 ± 3 | 3.84 ± 0.24 | 3.51 ± 0.22
x1 = 0.4611 | 1309.82 ± 1.1 | 1306.38 ± 1.1 | 1533 ± 3 | 1522 ± 3 | 4.07 ± 0.26 | 3.71 ± 0.23
x1 = 0.545 | 1339.48 ± 1.1 | 1336.01 ± 1.1 | 1536 ± 3 | 1528 ± 3 | 4.3 ± 0.27 | 3.88 ± 0.25
x1 = 0.6387 | 1370.13 ± 1.1 | 1366.49 ± 1.1 | 1542 ± 3 | 1532 ± 3 | 4.51 ± 0.29 | 4.05 ± 0.26
x1 = 0.7076 | 1391.08 ± 1.1 | 1387.36 ± 1.1 | 1546 ± 3 | 1538 ± 3 | 4.64 ± 0.3 | 4.15 ± 0.27
x1 = 0.7823 | 1412.52 ± 1.1 | 1408.73 ± 1.1 | 1548 ± 3 | 1540 ± 3 | 4.78 ± 0.31 | 4.26 ± 0.27
x1 = 0.8444 | 1429.25 ± 1.1 | 1425.42 ± 1.1 | 1552 ± 3 | 1545 ± 3 | 4.86 ± 0.31 | 4.32 ± 0.28
x1 = 0.907 | 1445.39 ± 1.1 | 1441.51 ± 1.1 | 1556 ± 3 | 1551 ± 3 | 4.95 ± 0.32 | 4.38 ± 0.28
x1 = 0.9524 | 1456.38 ± 1.1 | 1452.45 ± 1.1 | 1559 ± 3 | 1556 ± 3 | 5.02 ± 0.32 | 4.43 ± 0.29
x1 = 1 | 1467.58 ± 1.2 | 1463.57 ± 1.2 | 1564 ± 3 | 1560 ± 3 | 5.1 ± 0.33 | 4.48 ± 0.29
